{"source": "paper PMC8395040", "about": "(International Journal of Molecular Sciences, 2021)", "key": {"tumour cell lines": {"system": "tumour cell lines", "test": "MTT cytotoxicity assay, summary over the tumour cell line panel", "type": "cell-based, human", "protocol": "Cytotoxicity assays were performed by using the MTT reduction method as described previously. Briefly, cancer cell lines were plated in flat-bottom 96-well plates at a cell concentration of 5 × 10^3 cells/well for the fastest growing lines, such as HEK293 and HT29 cells and 1 × 10^4 cells/well for more slowly growing lines, such as HCT116, H1975, BxPC-3, AsPC-1, B16-F10 and DAOY. Then, cells were incubated with the synthesised compounds at different concentrations (from 0.05 to 50 µM) in 200 µL with 10% FBS in RPMI 1640 or DMEM F12 culture medium at 37 °C for 72 h. Later, 10 µL of MTT were added at a final concentration of 0.5 mg/mL, incubated at 37 °C for 4 h, and then solubilised with 10% sodium dodecyl sulphate (SDS) in 0.1 mM HCl and incubated overnight at 37 °C. Formazan formation was measured at 570 nm in a multiwell plate reader (Cytation 5, Biotek Instruments, Winooski, VT, USA). Three independent biological replicates were performed."}, "[1]": {"system": "Gli1 mRNA in Ptch1−/− mouse embryonic fibroblasts", "test": "Gli1 mRNA (qRT-PCR) in Ptch1−/− MEFs", "type": "cell-based", "conditions": "increasing concentrations, 24 h", "protocol": "HEK293T and Smo^−/−, Ptch^−/− MEFs cells were cultured in DMEM plus 10% FBS, 1% L-glutamine and antibiotics. Transient transfections were performed using DreamFectTM Gold transfection reagent (Oz Biosciences SAS, Marseille, France) following the manufacturer’s instructions and for varying periods of time depending on the experiment (24–72 h). […] Vehicle (DMSO) was used as control.\nTotal RNA was isolated with Trizol (Invitrogen/Life Technologies, Carlsbad, CA, USA) from Smo^−/− MEFs, Ptch^−/− MEFs or HT29 cells treated for 24 h and/or 48 h with 4s at different concentrations and reverse transcribed with the SensiFAST cDNA Synthesis Kit (Bioline Reagents Limited, London, UK). Quantitative real-time PCR (Q-PCR) analysis of Gli1 and housekeeping (HPRT, TBP, HMBS) mRNA levels was performed on each cDNA sample using the VIIA7 Real Time PCR System employing Assay-on-Demand Reagents (Life Technologies) as previously described. […] Each amplification reaction was performed in triplicate, the average of the three threshold cycles was used to calculate the amount of transcript in the sample (using SDS version 2.3 Software). mRNA quantification was expressed in arbitrary units as the ratio of the sample quantity to the quantity of the calibrator (ΔCt method). […]"}, "human SMO D473H mutant": {"molecular_target": "T1, human SMO D473H mutant (Homo sapiens, UniProt Q99835, D473H)", "T1 construct": "Myc; expressed in transfected cells; host or cells: HEK293T", "T1 sequence (Q99835 28-787 D473H)": "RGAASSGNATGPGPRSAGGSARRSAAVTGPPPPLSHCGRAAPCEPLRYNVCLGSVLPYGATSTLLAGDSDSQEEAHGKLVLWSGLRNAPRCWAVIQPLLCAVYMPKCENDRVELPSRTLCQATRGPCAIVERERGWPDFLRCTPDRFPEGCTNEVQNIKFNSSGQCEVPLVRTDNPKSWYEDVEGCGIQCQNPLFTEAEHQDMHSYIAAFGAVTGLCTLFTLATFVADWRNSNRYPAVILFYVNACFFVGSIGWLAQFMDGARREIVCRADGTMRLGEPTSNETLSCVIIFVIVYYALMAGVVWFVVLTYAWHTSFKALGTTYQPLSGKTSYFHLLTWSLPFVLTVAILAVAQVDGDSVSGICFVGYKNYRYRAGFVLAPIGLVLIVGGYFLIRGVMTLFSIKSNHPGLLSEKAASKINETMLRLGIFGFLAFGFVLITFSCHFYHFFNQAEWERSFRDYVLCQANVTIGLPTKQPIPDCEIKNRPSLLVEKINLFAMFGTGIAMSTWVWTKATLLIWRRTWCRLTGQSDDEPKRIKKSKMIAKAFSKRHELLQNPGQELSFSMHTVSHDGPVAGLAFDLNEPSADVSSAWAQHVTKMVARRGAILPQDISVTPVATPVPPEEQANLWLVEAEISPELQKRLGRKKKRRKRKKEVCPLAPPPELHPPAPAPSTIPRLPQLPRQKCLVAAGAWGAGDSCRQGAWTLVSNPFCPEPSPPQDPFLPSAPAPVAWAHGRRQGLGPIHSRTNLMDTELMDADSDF", "test": "BODIPY-cyclopamine displacement assay, SMO D473H", "type": "binding", "protocol": "HEK293T cells were transfected with genes encoding human WT SMO tagged with Myc-DDK or human SMO D473H mutant tagged with Myc. Cells were washed in PBS supplemented with 0.5% FBS, fixed in 4% paraformaldehyde in PBS for 10 min, and incubated for 6 h at 37 °C in the same medium supplemented with BODIPY-cyclopamine (5 nM), with and without 4s at different concentrations ([…]). The cells were permeabilised with 0.2% Triton X-100 (Sigma, St. Louis, MO, USA). Dako Fluorescent Mounting solution (Dako, Carpinteria, CA, USA) was used as mounting medium and the Hoechst reagent for staining of cell nuclei. BODIPY (green) and Hoechst (blue) signals were analysed in three representative fields per coverslip (×20 magnification). Data were expressed as the percentage of BC incorporation observed with BC alone."}, "HT29": {"system": "HT29", "test": "Colony formation assay, HT29", "type": "cell-based, human", "conditions": "5 µM, 14 d", "protocol": "HT29, HCT116, H1975 and HEK293 cells were seeded in a 6-well plate (1 × 10^4 cells per well) and incubated overnight in DMEM F12 supplemented with 10% FBS. […] After 72 h, the medium was replaced by fresh medium without stimuli, and cells were incubated for an additional 14 d to permit colony formation. The cells were fixed during 30 min with PFA 4% (v/v), washed and stained for 30 min at RT with a 5% solution of violet crystal for final colony counting. Three independent replicates were performed."}}}
{"smiles": "CCCCCCn1cnc2c(-c3ccc(OC(F)(F)F)cc3)nc(N3CCN(c4ccncc4)CC3)nc21", "note": "[Compound 4s, 9-Hexyl-2-(4-(pyridin-4-yl)piperazin-1-yl)-6-(4-(trifluoromethoxy)phenyl)-9H-purine]", "values": [{"measurement": "selectivity for cancer cells compared to HEK293 control cells", "setting": "tumour cell lines", "result": 40, "unit": "times"}, {"measurement": "cytotoxicity in tumour cell lines", "setting": "tumour cell lines; 50 µM, 72 h, MTT, tumour cell lines tested", "result": "more than 80%"}, {"measurement": "IC50", "setting": "tumour cell lines; Homo sapiens, depending on the tumour cell line, 72 h, read-out: IC50 range over tumour cell lines", "result": "1.3 to 15", "unit": "µM"}, {"measurement": "fold increase in cytotoxicity compared to vismodegib", "setting": "tumour cell lines; from IC50 values", "result": "~40", "unit": "fold"}, {"measurement": "GLI1 mRNA levels in Ptch1−/− MEFs", "setting": "[1]", "result": "significantly reduced mRNA levels of GLI1"}, {"measurement": "concentration above which toxic to SMO-D473H cells", "setting": "human SMO D473H mutant; HEK293T expressing SMO-D473H", "result": "above 5 µM"}, {"measurement": "binding to the SMO-D473H mutant receptor", "setting": "human SMO D473H mutant; HEK293T expressing SMO-D473H, up to 5 µM", "result": "dose-dependent inhibition of binding"}, {"measurement": "decrease of binding affinity with SMO-D473H mutant compared to WT SMO", "setting": "human SMO D473H mutant; suggested, no IC50 determinable", "result": "about 25%"}]}
{"smiles": "CS(=O)(=O)c1ccc(C(=O)Nc2ccc(Cl)c(-c3ccccn3)c2)c(Cl)c1", "note": "[Vismodegib, reference compound]", "values": [{"measurement": "colony formation HT-29", "setting": "HT29", "result": "less effective than 4s"}]}
